# Results published in patent publication US20260209214A1, “LSD1 MODULATORS” (RECURSION PHARMACEUTICALS, INC., priority 2022, published 2026).
# Structures can show the parent of a compound that is named as a salt.
# Target: Recombinant human LSD1 (Homo sapiens, UniProt O60341)
# Assay: LSD1 inhibition assay (HTRF LSD1 Histone H3K4 mono-demethylation assay, me1->me0)
# Type: biochemical
# Settings: 20 nM recombinant human LSD1, 95 nM H3K4(me1) biotinylated peptide, 15 min preincubation, 60 min at 25° C., read-out: LSD1 inhibition IC50 (nM range)
# Method in brief: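 Recombinant human LSD1 (20 nM) pre-incubated 15 min with 10 semi-log compound doses, then 95 nM biotinylated H3K4me1 peptide for 60 min at 25 °C in pH 8.5 Tris/NaCl buffer with 10 μM FAD, 1 mM DTT. HTRF me0-antibody read after 90 min; IC50 from 4-parameter fit.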
row,IC50,Structure (SMILES)
1,10 to 25 nM,"COCC1CCN(c2ccc(CC3CNCCCO3)cc2-c2ccc(C#N)c(F)c2)CC1 (stereo not drawn) [Example 74, 3-fluoro-2′-[4-(methoxymethyl)piperidin-1-yl]-5′-[(1,4-oxazepan-2-yl)methyl]-[1,1′-biphenyl]-4-carbonitrile]"
2,100 to 1000 nM,"CC(c1ccc(N2CCC2)c(-c2ccc(C#N)c(F)c2)c1)C1CNCCO1 (stereo not drawn) [Example 76, 2′-(azetidin-1-yl)-3-fluoro-5′-[1-(morpholin-2-yl)ethyl]-[1,1′-biphenyl]-4-carbonitrile]"
3,100 to 1000 nM,"COc1cn(-c2ccc(CC3CNCCO3)cc2-c2ccc(C#N)c(F)c2)nc1C (stereo not drawn) [Example 77, 3-fluoro-2′-(4-methoxy-3-methyl-1H-pyrazol-1-yl)-5′-[(morpholin-2-yl)methyl]-[1,1′-biphenyl]-4-carbonitrile]"
4,100 to 1000 nM,"N#Cc1ccc(-c2cc(CC3CNCCO3)ccc2N2CCC3(CCCO3)CC2)cc1F (stereo not drawn) [Example 78, 3-fluoro-5′-[(morpholin-2-yl)methyl]-2′-{1-oxa-8-azaspiro[4.5]decan-8-yl}-[1,1′-biphenyl]-4-carbonitrile]"
5,10 to 25 nM,"CC(C)C1(O)CCN(c2ccc(CC3CNCCO3)cc2-c2ccc(C#N)c(F)c2)CC1 (stereo not drawn) [Example 79, 3-fluoro-2′-[4-hydroxy-4-(propan-2-yl)piperidin-1-yl]-5′-[(morpholin-2-yl)methyl]-[1,1′-biphenyl]-4-carbonitrile]"
6,100 to 1000 nM,"COc1ccc(-c2ccc(CC3CNCCO3)cc2-c2ccc(C#N)c(F)c2)cn1 (stereo not drawn) [Example 80, 3-fluoro-2′-(6-methoxypyridin-3-yl)-5′-[(morpholin-2-yl)methyl]-[1,1′-biphenyl]-4-carbonitrile]"
7,10 to 25 nM,"CNC1CCN(c2cccc(-c3ccc(C#N)c(F)c3)c2-c2ccns2)CC1 [Example 81, 3-fluoro-3'-[4-(methylamino)piperidin-1-yl]-2'-(1,2-thiazol-5-yl)-[1,1'-biphenyl]-4-carbonitrile]"
8,25 to 100 nM,"N#Cc1ccc(-c2cccc(CC3CNCCCO3)c2C2CC2)cc1F (stereo not drawn) [Example 82, 2′-cyclopropyl-3-fluoro-3′-[(1,4-oxazepan-2-yl)methyl]-[1,1′-biphenyl]-4-carbonitrile]"
9,25 to 100 nM,"COCCc1ccc(-c2ccc(CC3CNCCO3)cc2-c2ccc(C#N)c(F)c2)c(F)c1 (stereo not drawn) [Example 83, 3-fluoro-2′-[2-fluoro-4-(2-methoxyethyl)phenyl]-5′-[(morpholin-2-yl)methyl]-[1,1′-biphenyl]-4-carbonitrile]"
10,> 1000 nM,"N#Cc1ccc(-c2cccc(CC3CNCCO3)c2C#N)cc1F (stereo not drawn) [Example 84, 3′-fluoro-3-[(morpholin-2-yl)methyl]-[1,1′-biphenyl]-2,4′-dicarbonitrile]"
11,100 to 1000 nM,"COc1ccc(-c2c(C)cc(CC3CNCCO3)cc2-c2ccc(C#N)c(F)c2)cn1 (stereo not drawn) [Example 85, 3-fluoro-2′-(6-methoxypyridin-3-yl)-3′-methyl-5′-[(morpholin-2-yl)methyl]-[1,1′-biphenyl]-4-carbonitrile]"
12,100 to 1000 nM,"COc1ccc(C2CN(c3ccc(CC4CNCCO4)cc3-c3ccc(C#N)c(F)c3)C2)cn1 (stereo not drawn) [Example 86, 3-fluoro-2′-[3-(6-methoxypyridin-3-yl)azetidin-1-yl]-5′-[(morpholin-2-yl)methyl]-[1,1′-biphenyl]-4-carbonitrile]"
13,100 to 1000 nM,"N#Cc1ccc(-c2cc(CC3CNCCO3)ccc2N2CCN(c3nccs3)CC2)cc1F (stereo not drawn) [Example 88, 3-fluoro-5′-[(morpholin-2-yl)methyl]-2′-[4-(1,3-thiazol-2-yl)piperazin-1-yl]-[1,1′-biphenyl]-4-carbonitrile]"
14,> 1000 nM,"Cc1cc(NCC2CNCCO2)c(Cl)c(-c2ccc(C#N)c(F)c2)c1 (stereo not drawn) [Example 89, 2′-chloro-3-fluoro-5′-methyl-3′-{[(morpholin-2-yl)methyl]amino}-[1,1′-biphenyl]-4-carbonitrile]"
15,> 1000 nM,"N#Cc1ccc(-c2cccc(CC3CNCCO3)c2-n2cccn2)cc1F (stereo not drawn) [Example 90, 2-fluoro-4-[3-(morpholin-2-ylmethyl)-2-pyrazol-1-yl-phenyl]benzonitrile]"
16,25 to 100 nM,"Cn1nc2ccc(-c3ccc(CC4CNCCO4)cc3-c3ccc(C#N)c(F)c3)cc2c1Cl (stereo not drawn) [Example 91, 2′-(3-chloro-2-methyl-2H-indazol-5-yl)-3-fluoro-5′-[(morpholin-2-yl)methyl]-[1,1′-biphenyl]-4-carbonitrile]"
17,100 to 1000 nM,"N#Cc1ccc(-c2cccc(CC3CNCCO3)c2-c2cocn2)cc1F (stereo not drawn) [Example 92, 3-fluoro-3′-[(morpholin-2-yl)methyl]-2′-(1,3-oxazol-4-yl)-[1,1′-biphenyl]-4-carbonitrile]"
18,25 to 100 nM,"N#Cc1ccc(-c2cc(CC3CNCCO3)ccc2-c2ccc(N3CCCC3)nc2)cc1F (stereo not drawn) [Example 93, 3-fluoro-5′-[(morpholin-2-yl)methyl]-2′-[6-(pyrrolidin-1-yl)pyridin-3-yl]-[1,1′-biphenyl]-4-carbonitrile]"

row,IC50,Structure (SMILES)
1,25 to 100 nM,"COCCOc1ccc(-c2ccc(CC3CNCCO3)cc2-c2ccc(C#N)c(F)c2)cc1 (stereo not drawn) [Example 94, 3-fluoro-2′-[4-(2-methoxyethoxy)phenyl]-5′-[(morpholin-2-yl)methyl]-[1,1′-biphenyl]-4-carbonitrile]"
2,25 to 100 nM,"CN(C)C1CCN(c2cccc(-c3ccc(C#N)c(F)c3)c2-c2cnco2)CC1 [Example 95, 3'-[4-(dimethylamino)piperidin-1-yl]-3-fluoro-2'-(1,3-oxazol-5-yl)-[1,1'-biphenyl]-4-carbonitrile]"
3,100 to 1000 nM,"N#Cc1ccc(-c2cc(CC3CNCCO3)ccc2-c2ccc(OCC3CC3)nc2)cc1F (stereo not drawn) [Example 96, 2′-[6-(cyclopropylmethoxy)pyridin-3-yl]-3-fluoro-5′-[(morpholin-2-yl)methyl]-[1,1′-biphenyl]-4-carbonitrile]"
4,> 1000 nM,"N#Cc1ccc(-c2cc(CC3CNCCO3)ccc2N2CCn3nc(C4CC4)cc3C2)cc1F (stereo not drawn) [Example 97, 2′-{2-cyclopropyl-4H,5H,6H,7H-pyrazolo[1,5-a]pyrazin-5-yl}-3-fluoro-5′-[(morpholin-2-yl)methyl]-[1,1′-biphenyl]-4-carbonitrile]"
5,100 to 1000 nM,"COc1ccc(-c2ccc(CC3CNCCO3)cc2-c2ccc(C#N)c(F)c2)cc1F (stereo not drawn) [Example 98, 3-fluoro-2′-(3-fluoro-4-methoxyphenyl)-5′-[(morpholin-2-yl)methyl]-[1,1′-biphenyl]-4-carbonitrile]"
6,100 to 1000 nM,"CC1(F)CCN(c2ccc(CC3CNCCO3)cc2-c2ccc(C#N)c(F)c2)CC1 (stereo not drawn) [Example 99, 3-fluoro-2′-(4-fluoro-4-methylpiperidin-1-yl)-5′-[(morpholin-2-yl)methyl]-[1,1′-biphenyl]-4-carbonitrile]"
7,25 to 100 nM,"N#Cc1ccc(-c2cc(CC3CNCCO3)ccc2N2CCC(C3CCOC3)CC2)cc1F (stereo not drawn) [Example 100, 3-fluoro-5′-[(morpholin-2-yl)methyl]-2′-[4-(oxolan-3-yl)piperidin-1-yl]-[1,1′-biphenyl]-4-carbonitrile]"
8,100 to 1000 nM,"N#Cc1ccc(-c2cc(CC3CNCCO3)ccc2N2CC(c3ccc(C4CC4)nc3)C2)cc1F (stereo not drawn) [Example 101, 2′-[3-(6-cyclopropylpyridin-3-yl)azetidin-1-yl]-3-fluoro-5′-[(morpholin-2-yl)methyl]-[1,1′-biphenyl]-4-carbonitrile]"
9,25 to 100 nM,"N#Cc1ccc(-c2cc(CC3CNCCCO3)ccc2N2CCC2)cc1F (stereo not drawn) [Example 102, 2′-(azetidin-1-yl)-3-fluoro-5′-[(1,4-oxazepan-2-yl)methyl]-[1,1′-biphenyl]-4-carbonitrile]"
10,10 to 25 nM,"CC1(C)CNCC(Cc2cccc(-c3ccc(C#N)cc3)c2-c2cncs2)O1 (stereo not drawn) [Example 103, 3′-[(6,6-dimethylmorpholin-2-yl)methyl]-2′-(1,3-thiazol-5-yl)-[1,1′-biphenyl]-4-carbonitrile]"
11,25 to 100 nM,"CC(C)(O)Cc1ccc(-c2ccc(CC3CNCCO3)cc2-c2ccc(C#N)c(F)c2)c(F)c1 (stereo not drawn) [Example 104, 3-fluoro-2′-[2-fluoro-4-(2-hydroxy-2-methylpropyl)phenyl]-5′-[(morpholin-2-yl)methyl]-[1,1′-biphenyl]-4-carbonitrile]"
12,100 to 1000 nM,"N#Cc1ccc(-c2cc(CC3CNCCO3)ccc2N2CCN(CC(F)F)CC2)cc1F (stereo not drawn) [Example 105, 2′-[4-(2,2-difluoroethyl)piperazin-1-yl]-3-fluoro-5′-[(morpholin-2-yl)methyl]-[1,1′-biphenyl]-4-carbonitrile]"
13,100 to 1000 nM,"N#Cc1ccc(-c2cc(CC3CNCCO3)ccc2COc2cccnc2)cc1F (stereo not drawn) [Example 106, 3-fluoro-5′-[(morpholin-2-yl)methyl]-2′-[(pyridin-3-yloxy)methyl]-[1,1′-biphenyl]-4-carbonitrile]"
14,100 to 1000 nM,"N#Cc1ccc(-c2cc(CC3CNCCO3)ccc2N2CC(c3cccnc3)C2)cc1F (stereo not drawn) [Example 107, 3-fluoro-5′-[(morpholin-2-yl)methyl]-2′-[3-(pyridin-3-yl)azetidin-1-yl]-[1,1′-biphenyl]-4-carbonitrile]"
15,< 10 nM,"N#Cc1ccc(-c2cccc(N3CCC4NCCC4C3)c2-c2ccns2)cc1F (stereo not drawn) [Example 108, 3-fluoro-3'-{octahydro-1H-pyrrolo[3,2-c]pyridin-5-yl}-2'-(1,2-thiazol-5-yl)-[1,1'-biphenyl]-4-carbonitrile]"
16,< 10 nM,"N#Cc1ccc(-c2cccc(CC3CCNC3)c2-c2ccns2)cc1F (stereo not drawn) [Example 109, 2-fluoro-4-[2-isothiazol-5-yl-3-(pyrrolidin-3-ylmethyl)phenyl]benzonitrile; hydrochloride]"
17,10 to 25 nM,"N#Cc1ccc(-c2cccc(N3CCC(N)CC3)c2-c2ccns2)cc1F [Example 110, 3'-(4-aminopiperidin-1-yl)-3-fluoro-2'-(1,2-thiazol-5-yl)-[1,1'-biphenyl]-4-carbonitrile]"
18,25 to 100 nM,"N#Cc1ccc(-c2cccc(CC3CCOCC3)c2-c2ccns2)cc1F [Example 111, 3-fluoro-3′-[(oxan-4-yl)methyl]-2′-(1,2-thiazol-5-yl)-[1,1′-biphenyl]-4-carbonitrile]"
